# Square brackets hold non-standard residues; d marks the D form. Peptide text beside a SMILES is read from it. Cha = N[C@@H](CC1CCCCC1)C(=O)O; Ahx = NCCCCCC(=O)O
# Molecular target: Neuropeptide Y receptor type 2 (Oryctolagus cuniculus)
# Assay: Compound was evaluated for its inhibitory activity against Y2 receptor of rabbit kidney membrane
row,IC50 [nM],SMILES
1,16,CC[C@H](C)[C@H](NC(=O)[C@H](Cc1ccc(O)cc1)NC(=O)[C@H](Cc1c[nH]cn1)NC(=O)[C@H](CCCN=C(N)N)NC(C)=O)C(=O)N[C@@H](CC(N)=O)C(=O)N[C@@H](CC1CCCCC1)C(=O)N[C@H](C(=O)N[C@H](C(=O)N[C@@H](CCCN=C(N)N)C(=O)N[C@@H](CCC(N)=O)C(=O)N[C@@H](CCCN=C(N)N)C(=O)N[C@@H](Cc1ccc(O)cc1)C(=O)O)[C@@H](C)O)[C@@H](C)CC [Ac-RHYIN-(Cha)-ITRQRY] (Ac-RHYIN[Cha]ITRQRY-OH)
2,8,CC[C@H](C)[C@H](NC(=O)[C@H](Cc1ccc(O)cc1)NC(=O)[C@H](Cc1c[nH]cn1)NC(=O)[C@H](CCCN=C(N)N)NC(C)=O)C(=O)N[C@@H](CC(N)=O)C(=O)N[C@@H](CC1CCCCC1)C(=O)N[C@@H](CC1CCCCC1)C(=O)N[C@H](C(=O)N[C@@H](CCCN=C(N)N)C(=O)N[C@@H](CCC(N)=O)C(=O)N[C@@H](CCCN=C(N)N)C(=O)N[C@@H](Cc1ccc(O)cc1)C(=O)O)[C@@H](C)O [Ac-RHYIN-(Cha)-(Cha)-TRQRY] (Ac-RHYIN[Cha][Cha]TRQRY-OH)
3,180,CC[C@H](C)[C@H](NC(=O)[C@H](Cc1ccc(O)cc1)NC(=O)[C@H](Cc1cnc[nH]1)NC(=O)[C@H](CCCNC(=N)N)NC(=O)CCCCCNC(=O)[C@H](CCCCN)NC(=O)[C@H](CO)NC(=O)[C@@H]1CCCN1C(=O)[C@@H](N)Cc1ccc(O)cc1)C(=O)N[C@@H](CC(N)=O)C(=O)N[C@@H](CC(C)C)C(=O)N[C@H](C(=O)N[C@H](C(=O)N[C@@H](CCCNC(=N)N)C(=O)N[C@@H](CCC(N)=O)C(=O)N[C@@H](CCCNC(=N)N)C(=O)N[C@@H](Cc1ccc(O)cc1)C(N)=O)[C@@H](C)O)[C@@H](C)CC [Neuropeptide Y analogue] (H-YPSK[Ahx]RHYINLITRQRY-NH2)

# Source: BindingDB's records for doi:10.1016/S0960-894X(00)80696-4 (1993)
